Test results from ChEMBL document CHEMBL3797190, “Development of 3,5-Dinitrobenzylsulfanyl-1,3,4-oxadiazoles and Thiadiazoles as Selective Antitubercular Agents Active Against Replicating and Nonreplicating Mycobacterium tuberculosis” (J Med Chem, 2016).
In brackets after ≈: the same amount, converted by molar mass.

How the values were obtained:
[1] = tested on: Pseudomonas aeruginosa; assay: Antibacterial activity against Pseudomonas aeruginosa ATCC 9027 after 24 to 48 hrs by broth microdilution method; format: functional
[2] = tested on: Mycobacterium avium; assay: Antimycobacterial activity against Mycobacterium avium CNCTC My 330/88 after 21 days by microdilution method; format: functional; details: CNCTC My 330/88, 504 h
[3] = tested on: Mycobacterium kansasii; assay: Antimycobacterial activity against Mycobacterium kansasii CNCTC My 235/80 after 7 days by microdilution method; format: functional; details: CNCTC My 235/80, 168 h
[4] = tested on: Trichophyton mentagrophytes; assay: Antifungal activity against Trichophyton mentagrophytes 445 after 72 to 120 hrs by broth microdilution method; format: functional
[5] = Cytotoxicity against human HeLa cells assessed as cell viability at 20 uM after 24 hrs by MTS assay; format: cell-based; details: read-out: Activity
[6] = tested on: Mycobacterium avium; assay: Antimycobacterial activity against Mycobacterium avium CNCTC My 330/88 after 14 days by microdilution method; format: functional; details: CNCTC My 330/88, 336 h
[7] = tested on: Enterococcus faecalis; assay: Antibacterial activity against Enterococcus faecalis J 14365/08 after 24 to 48 hrs by broth microdilution method; format: functional
[8] = Cytotoxicity against human HuH7 cells assessed as cell viability after 48 hrs by MTS assay; format: cell-based; details: Huh-7, 48 h
[9] = Cytotoxicity against MDCK2-MDR1 cells assessed as cell viability after 48 hrs by MTS assay; format: ADME, cell-based; details: Canis lupus familiaris, MDCK-II
[10] = tested on: Mycobacterium kansasii; assay: Antimycobacterial activity against Mycobacterium kansasii CNCTC My 235/80 after 14 days by microdilution method; format: functional; details: CNCTC My 235/80, 336 h
[11] = tested on: Aspergillus fumigatus; assay: Antifungal activity against Aspergillus fumigatus 231 after 24 to 48 hrs by broth microdilution method; format: functional
[12] = tested on: Mycobacterium tuberculosis; assay: Antimycobacterial activity against Mycobacterium tuberculosis CNCTC My 331/88 after 21 days by microdilution method; format: functional; details: CNCTC My 331/88, 504 h
[13] = tested on: Lichtheimia corymbifera; assay: Antifungal activity against Absidia corymbifera 272 after 24 to 48 hrs by broth microdilution method; format: functional
[14] = tested on: Staphylococcus epidermidis; assay: Antibacterial activity against Staphylococcus epidermidis H 6966/08 after 24 to 48 hrs by broth microdilution method; format: functional
[15] = Cytotoxicity against human HeLa cells assessed as cell viability at 20 uM after 48 hrs by MTS assay; format: cell-based; details: read-out: Activity
[16] = tested on: Candida albicans; assay: Antifungal activity against Candida albicans ATCC 44859 after 24 to 48 hrs by broth microdilution method; format: functional
[17] = tested on: Klebsiella pneumoniae; assay: Antibacterial activity against ESBL producing Klebsiella pneumoniae J 14368/08 after 24 to 48 hrs by broth microdilution method; format: functional
[18] = Cytotoxicity against human HuH7 cells assessed as cell viability after 24 hrs by MTS assay; format: cell-based; details: Huh-7, 24 h
[19] = tested on: HeLa; assay: Cytotoxicity against human HeLa cells assessed as cell viability after 48 hrs by MTS assay; format: cell-based
[20] = Cytotoxicity against MDCK2-MDR1 cells assessed as cell viability at 20 uM after 48 hrs by MTS assay; format: ADME, cell-based, Canis lupus familiaris, MDCK-II; details: dog, read-out: Activity
[21] = tested on: Candida tropicalis; assay: Antifungal activity against Candida tropicalis 156 after 24 to 48 hrs by broth microdilution method; format: functional
[22] = tested on: Escherichia coli; assay: Antibacterial activity against Escherichia coli ATCC 8739 after 24 to 48 hrs by broth microdilution method; format: functional
[23] = Cytotoxicity against human HuH7 cells assessed as cell viability at 20 uM after 48 hrs by MTS assay; format: cell-based, Huh-7; details: read-out: Activity
[24] = tested on: Trichosporon asahii; assay: Antifungal activity against Trichosporon asahii 1188 after 24 to 48 hrs by broth microdilution method; format: functional
[25] = Cytotoxicity against MDCK2-MDR1 cells assessed as cell viability after 24 hrs by MTS assay; format: ADME, cell-based; details: Canis lupus familiaris, MDCK-II
[26] = Cytotoxicity against MDCK2-MDR1 cells assessed as cell viability at 20 uM after 24 hrs by MTS assay; format: ADME, cell-based, Canis lupus familiaris, MDCK-II; details: dog, read-out: Activity
[27] = tested on: Mycobacterium kansasii; assay: Antimycobacterial activity against Mycobacterium kansasii CNCTC My 6509/96 after 14 days by microdilution method; format: functional; details: CNCTC My 6509/96, 336 h
[28] = tested on: Mycobacterium kansasii; assay: Antimycobacterial activity against Mycobacterium kansasii CNCTC My 6509/96 after 21 days by microdilution method; format: functional; details: CNCTC My 6509/96, 504 h
[29] = tested on: Mycobacterium kansasii; assay: Antimycobacterial activity against Mycobacterium kansasii CNCTC My 235/80 after 21 days by microdilution method; format: functional; details: CNCTC My 235/80, 504 h
[30] = tested on: Pichia kudriavzevii; assay: Antifungal activity against Candida krusei E28 after 24 to 48 hrs by broth microdilution method; format: functional
[31] = tested on: Klebsiella pneumoniae; assay: Antibacterial activity against Klebsiella pneumoniae D 11750/08 after 24 to 48 hrs by broth microdilution method; format: functional
[32] = Cytotoxicity against human HuH7 cells assessed as cell viability at 20 uM after 24 hrs by MTS assay; format: cell-based, Huh-7; details: read-out: Activity
[33] = tested on: Staphylococcus aureus; assay: Antibacterial activity against methicillin-resistant Staphylococcus aureus H 5996/08 after 24 to 48 hrs by broth microdilution method; format: functional
[34] = tested on: Staphylococcus aureus; assay: Antibacterial activity against Staphylococcus aureus ATCC 6538 after 24 to 48 hrs by broth microdilution method; format: functional
[35] = tested on: Nakaseomyces glabratus; assay: Antifungal activity against Candida glabrata 20/I after 24 to 48 hrs by broth microdilution method; format: functional
[36] = tested on: Mycobacterium tuberculosis; assay: Antimycobacterial activity against Mycobacterium tuberculosis CNCTC My 331/88 after 14 days by microdilution method; format: functional; details: CNCTC My 331/88, 336 h
[37] = tested on: Mycobacterium kansasii; assay: Antimycobacterial activity against Mycobacterium kansasii CNCTC My 6509/96 after 7 days by microdilution method; format: functional; details: CNCTC My 6509/96, 168 h
[38] = tested on: HeLa; assay: Cytotoxicity against human HeLa cells assessed as cell viability after 24 hrs by MTS assay; format: cell-based
[39] = tested on: Salmonella typhimurium; assay: Mutagenic activity in Salmonella typhimurium TA98 assessed as reverse mutation at 30 uM by Ames test; format: toxicity, organism-based; details: salmonella enterica subsp. enterica serovar typhimurium

| SMILES | MIC95 [1] [µM] | MIC99 [2] [µM] | MIC99 [3] [µM] | MIC50 [4] [µM] | viability at 24 h, 20 µM [5] [%] | MIC99 [6] [µM] | MIC95 [7] [µM] | IC50 [8] [µM] | IC50 [9] [µM] | MIC99 [10] [µM] | MIC50 [11] [µM] | MIC99 [12] [µM] | MIC50 [13] [µM] | MIC95 [14] [µM] | viability at 48 h, 20 µM [15] [%] | MIC80 [16] [µM] | MIC95 [17] [µM] | IC50 [18] [µM] | IC50 [19] [µM] | viability at 48 h, 20 µM [20] [%] | further results |
| --- | --- | --- | --- | --- | --- | --- | --- | --- | --- | --- | --- | --- | --- | --- | --- | --- | --- | --- | --- | --- | --- |
| COc1ccc(-c2nnc(SCc3cc([N+](=O)[O-])cc([N+](=O)[O-])c3)s2)cc1 | > 125 | 16 (≈ 6.47 µg/mL) | 0.25 (≈ 0.101 µg/mL) | > 125 | 88 | 8 (≈ 3.24 µg/mL) | > 125 | > 20 | > 20 | 1 (≈ 0.404 µg/mL) | > 125 | 0.125 (≈ 0.0506 µg/mL) | > 125 | > 125 | 27.1 | > 125 | > 125 | > 20 | 4.4 | 60 | MIC80 [21]: > 125 µM; MIC95 [22]: > 125 µM; viability at 48 h, 20 µM [23]: 84.2%; MIC80 [24]: > 125 µM; IC50 [25]: > 20 µM; viability at 24 h, 20 µM [26]: 101%; MIC99 [27]: 1 µM (≈ 0.404 µg/mL); MIC99 [28]: 1 µM (≈ 0.404 µg/mL); MIC99 [29]: 1 µM (≈ 0.404 µg/mL); MIC80 [30]: > 125 µM; MIC95 [31]: > 125 µM; viability at 24 h, 20 µM [32]: 95.4%; MIC95 [33]: > 125 µM; MIC95 [34]: > 125 µM; MIC80 [35]: > 125 µM; MIC99 [36]: 0.125 µM (≈ 0.0506 µg/mL); MIC99 [37]: 0.25 µM (≈ 0.101 µg/mL); IC50 [38]: > 20 µM |
| O=[N+]([O-])c1ccc(CSc2nnc(-c3ccccc3)o2)c([N+](=O)[O-])c1 | > 125 | > 16 | 4 (≈ 1.43 µg/mL) | > 125 | 97.7 | > 16 | > 125 | > 20 | > 20 | 8 (≈ 2.87 µg/mL) | > 125 | 4 (≈ 1.43 µg/mL) | > 125 | > 125 | 113 | > 125 | > 125 | > 20 | > 20 | 73.3 | Activity [39]: Toxic; MIC80 [21]: > 125 µM; MIC95 [22]: > 125 µM; viability at 48 h, 20 µM [23]: 92.8%; MIC80 [24]: > 125 µM; IC50 [25]: > 20 µM; viability at 24 h, 20 µM [26]: 69.6%; MIC99 [27]: 8 µM (≈ 2.87 µg/mL); MIC99 [28]: 8 µM (≈ 2.87 µg/mL); MIC99 [29]: 16 µM (≈ 5.73 µg/mL); MIC80 [30]: > 125 µM; MIC95 [31]: > 125 µM; viability at 24 h, 20 µM [32]: 99.5%; MIC95 [33]: > 125 µM; MIC95 [34]: > 125 µM; MIC80 [35]: > 125 µM; MIC99 [36]: 2 µM (≈ 0.717 µg/mL); MIC99 [37]: 2 µM (≈ 0.717 µg/mL); IC50 [38]: > 20 µM |
